The values that follow are results of earlier work, collected in patent EP2749553A1, “Process for preparation of enantiomerically pure S-(+)-N, N-dimethyl-a-[2-(naphthalenyloxy)ethyl] benzenemethanamine” (Deva Holding Anonim Sirketi, priority 2012, dated 2014).

The conditions of data set [1]: free base.
The conditions of data set [2]: clinical studies; (S)- versus (R)-enantiomer.

Structures are written as SMILES.

`CN(C)[C@@H](CCOc1cccc2ccccc12)c1ccccc1` [Dapoxetine, S-(+)-N, N-dimethyl-a-[2-(naphthalenyloxy)ethyl] benzenemethanamine]: in data set [1], the in vivo solubility result is “poor” and the water solubility entry is on record as “poor”. In addition, the “times more potent than (R)-enantiomer” value in data set [2] was 3.5 times. Further, the in vivo absorption result (free base) is “low”. Further, the “initial plasma half life” value (plasma) is recorded as “about 1 h”. In addition, the initial half-life (rapid elimination) was 1 to 2 h.
